Laboratory results taken from article PMC5085131, “Cyclic AMP efflux inhibitors as potential therapeutic agents for leukemia” (Oncotarget, 2016).
Where two headings read alike, the source gives them in different places.

Assays:
RS4;11 = assay: CellTiter-Glo cell viability; assay type: cell-based; details: Homo sapiens, overnight, n = 6, ± SEM, read-out: Compound EC50, RS4;11 (cell viability)
Method: (§1) Cell viability was determined with the CellTiter-Glo® Luminescent Cell Viability Assay (Promega). Greiner 655083 had 100 μL cRPMI +/− 4×10^4 cells/well, and dose response curves of compounds ranged from 100 μM to 1.53 nM (1% DMSO). Wells with DMSO-only served as negative controls. Samples were incubated overnight, and the assay was completed according to the manufacturer's protocol. Plates were analyzed using a Victor^3V™ 1420 Multilabel Counter (Perkin Elmer).

Sup B15 = assay: CellTiter-Glo cell viability; assay type: cell-based; details: Homo sapiens, overnight, n = 6, ± SEM, read-out: Compound EC50, Sup B15 (cell viability)
Method: as §1

697 = assay: CellTiter-Glo cell viability; assay type: cell-based; details: Homo sapiens; overnight, n = 6, ± SEM; read-out: Compound EC50, 697 (cell viability)
Method: as §1

Reh = assay: CellTiter-Glo cell viability; assay type: cell-based; details: Homo sapiens, overnight, n = 6, ± SEM, read-out: Compound EC50, Reh (cell viability)
Method: as §1

MHH Call 3 = assay: CellTiter-Glo cell viability; assay type: cell-based; details: Homo sapiens; overnight, n = 6, ± SEM; read-out: Compound EC50, MHH Call 3 (cell viability)
Method: as §1

U937 cells = assay: CellTiter-Glo cell viability; assay type: cell-based; details: Homo sapiens, U-937; overnight, n = 8, ± SEM, fit top = 100, bottom = 0, hill slope = −1; read-out: Compound EC50, U937 (cell viability)
Method: as §1

Nalm 6 = assay: CellTiter-Glo cell viability; assay type: cell-based; details: Homo sapiens, overnight, n = 6, ± SEM, read-out: Compound EC50, Nalm 6 (cell viability)
Method: as §1

[1] = system: primary B-ALL patient samples; assay: CellTiter-Glo cell viability of primary ALL patient samples ex vivo; assay type: cell-based, human; details: for EC50: Homo sapiens; for Cell viability vs. vehicle treated sample at lower concentrations: samples from patients no. 1 and no. 5
Method: Bone marrow samples were acquired at diagnosis from pediatric B-ALL patients. Mononuclear cells were enriched by centrifugation in Ficoll-Paque (GE Healthcare, cat. 17-1440-02) and aliquoted for storage in liquid nitrogen until use. Samples were thawed in a 37°C water bath, resuspended in 20% FBS cRPMI, and centrifuged to remove freezing medium. Cells were resuspended in conditioned medium (DMEM, 10% FBS, 50 U/ml penicillin-streptomycin, 2 mM L-glutamine) from HS-5 stromal cell cultures.
as §1
For primary ALL patient samples, media consisted of 50% cRPMI, 50% conditioned DMEM from HS-5 stromal cell cultures and compounds. Cell densities ranged from 28,000-68,000 cells/well, and plates were foil-sealed prior to incubation.

[2] = parameters: method as in PMID 19505822; details: cited from earlier work
[3] = system: CREB (Ser133) / ATF-1 (Ser63) phosphorylation; assay: Binding of anti-phospho-CREB/ATF-1 antibody in U937 cells (flow cytometry); assay type: cell-based, human; details: 1 hour, 20 μM
Method: Cells were suspended at 10^6 cells/ml in cRPMI and incubated for 1 hour at 37°C with 20 μM ICE compounds or forskolin (positive control). Negative control samples were treated with DMSO at equal volume. Cells were fixed with 20x volume of pre-warmed 1x solution BD Phosflow^TM Lyse/Fix Buffer (cat. 558049), incubated at 37°C for 10 minutes, permeabilized with BD Phosflow^TM Perm buffer II (cat. 558052), and incubated on ice for 30 minutes. Permeabilized cells were then washed and stained with BD Phosflow™ Alexa Fluor® 488 Mouse Anti-CREB (pS133) / ATF-1 (pS63) clone J151-21 (cat. 558435) according to the manufacturer's instructions.

[4] = parameters: method as in PMID 19505822; details: cited from earlier work; remark: listed apart in the source
[5] = mean of converged EC50s of six patient samples, read-out: Compound EC50 (Sample means), cell viability
[6] = primary B-ALL sample, duplicate, ± SEM, read-out: Compound EC50 (Patient no. 1), cell viability
[7] = primary B-ALL sample, duplicate, ± SEM, read-out: Compound EC50 (Patient no. 2), cell viability
[8] = primary B-ALL sample, duplicate, ± SEM, read-out: Compound EC50 (Patient no. 3), cell viability
[9] = primary B-ALL sample, duplicate, ± SEM, read-out: Compound EC50 (Patient no. 4), cell viability
[10] = primary B-ALL sample, duplicate, ± SEM, read-out: Compound EC50 (Patient no. 5), cell viability
[11] = primary B-ALL sample, duplicate, ± SEM, read-out: Compound EC50 (Patient no. 6), cell viability

Row | Structure (SMILES) | EC50 (RS4;11) [µM] | EC50 (Sup B15) [µM] | EC50 697 [µM] | EC50 (Reh) [µM] | EC50 (MHH Call 3) [µM] | EC50 (U937 cells) [µM] | EC50 (Nalm 6) [µM] | EC50 [1, 5] [µM] | EC50 [1, 6] [µM] | EC50 [1, 7] [µM] | EC50 [1, 8] [µM] | EC50 [1, 9] [µM] | EC50 [1, 10] [µM] | EC50 [1, 11] [µM] | water-solubility [2] | Binding of anti-CREB (pS133) / ATF-1 (pS63) specific antibodies [3] | bioavailability [4] | Cell viability vs. vehicle treated sample at lower concentrations [1]
1 | C[C@H]1COC2=C1C(=O)C(=O)c1c2ccc2c1CCCC2(C)C [Cryptotanshinone] | 8.36 ± 5.84 | 29.2 ± 7.58 | 67.1 ± 31.8 | 105 ± 14.6 | 126 ± 35.9 | 11.8 ± 6.78 | 70.2 ± 29.9 | 19.1 | 12.9 ± 5.51 | 29.8 ± 8.97 | 14 ± 9.8 | 34.4 ± 5.79 | 6.88 ± 2.89 | 16.6 ± 5.55 |  |  |  | 
2 | C=C1C(=O)O[C@H]2[C@H]1CC/C(C)=C/CC[C@@]1(C)O[C@@H]21 [Parthenolide] | 3.07 ± 1 | 1.54 ± 0.36 | 1.13 ± 0.31 | 2.19 ± 1.34 | 1.97 ± 0.59 | 2.86 ± 1.55 | 0.72 ± 0.23 | 3.15 | 4.72 ± 3.71 | 3.65 ± 1.73 | 3.17 ± 1.44 | 4.13 ± 1.92 | 0.92 ± 0.58 | 2.31 ± 0.78 | Poor | comparable to the adenylate cyclase stimulator forskolin positive control | Poor | significant increase in cell viability
3 | O=C1C=C2C(=CCOC2O)O1 (stereo not drawn) [Patulin] | 1.01 ± 0.22 | 0.2 ± 0.12 | 0.13 ± 0.04 | 0.33 ± 0.13 | 0.53 ± 0.17 | 3.1 ± 2.22 | 0.07 ± 0.01 | 7.36 | 1.79 ± 1.75 | 4.72 ± 2.1 | 0.4 ± 0.29 |  | 22.5 ± 11.8 |  |  |  |  | 
4 | Oc1c(I)cc(Cl)c2cccnc12 [Clioquinol] | 64.4 ± 36.6 | 15.4 ± 3.51 | 18.6 ± 7.74 | 21.1 ± 4.61 | 67.1 ± 22.9 | 40.6 ± 10.8 | 24.8 ± 12.1 | 58.8 | 60.1 ± 53.5 | 158 ± 84.5 | 8.67 ± 4.84 | 48 ± 22.9 | 13.8 ± 5.23 | 63.9 ± 41.1 |  | comparable to the adenylate cyclase stimulator forskolin positive control |  | significant increase in cell viability
